Measured values taken from PubChem BioAssay (NCI).
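At the GI50, growth is halved. TGI marks complete inhibition of growth.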

Tests used:
Test in all cases: inhibition of tumour cell growth, NCI panel, 384-well format
[1] = tested on: SK-MEL-28 melanoma
[2] = tested on: HCT-116 colon
[3] = tested on: SN12C renal
[4] = tested on: SR leukemia
[5] = tested on: SNB-75 CNS
[6] = tested on: NCI-H322M lung
[7] = tested on: SNB-19 CNS
[8] = tested on: MALME-3M melanoma
[9] = tested on: HOP-62 NSCLC
[10] = tested on: HOP-92 NSCLC
[11] = tested on: EKVX NSCLC
[12] = tested on: A498 renal
[13] = tested on: NCI/ADR-RES ovarian
[14] = tested on: MDA-MB-435 melanoma
[15] = tested on: ACHN renal
[16] = tested on: OVCAR-3 ovarian
[17] = tested on: U251 glioblastoma
[18] = tested on: NCI-H226 lung
[19] = tested on: IGROV1 ovarian
[20] = tested on: CAKI-1 renal
[21] = tested on: SF-295 CNS
[22] = tested on: NCI-H522 lung
[23] = tested on: LOX IMVI melanoma
[24] = tested on: CCRF-CEM leukemia
[25] = tested on: MCF7 breast
[26] = tested on: DU-145 prostate
[27] = tested on: NCI-H460 NSCLC
[28] = tested on: SF-539 CNS
[29] = tested on: OVCAR-8 ovarian
[30] = tested on: MDA-MB-231 breast
[31] = tested on: UACC-62 melanoma
[32] = tested on: RPMI-8226 leukemia
[33] = tested on: UO-31 renal
[34] = tested on: SW-620 colon
[35] = tested on: UACC-257 melanoma
[36] = tested on: A549 NSCLC
[37] = tested on: NCI-H23 lung
[38] = tested on: OVCAR-5 ovarian
[39] = tested on: BT-549 breast
[40] = tested on: K-562 leukemia
[41] = tested on: HL-60(TB) leukemia
[42] = tested on: COLO 205 colon
[43] = tested on: MDA-MB-468 breast
[44] = tested on: SK-OV-3 ovarian
[45] = tested on: KM12 colon
[46] = tested on: SF-268 CNS
[47] = tested on: RXF 393 renal
[48] = tested on: SK-MEL-2 melanoma
[49] = tested on: HS 578T breast
[50] = tested on: HCC-2998 colon
[51] = tested on: HCT-15 colon
[52] = tested on: TK-10 renal
[53] = tested on: SK-MEL-5 melanoma
[54] = tested on: HT29 colon
[55] = tested on: M14 melanoma
[56] = tested on: 786-0 renal
[57] = tested on: T-47D breast
[58] = tested on: MOLT-4 leukemia
[59] = tested on: PC-3 prostate
[60] = tested on: OVCAR-4 ovarian

## Cn1ncc2cc(-c3cnc(N)c(Cl)c3N3CCC4(CCNC4=O)CC3)ccc21
[1]
  GI50: 39.6 µM
  TGI: > 100 µM
[2]
  GI50: 29.4 µM
  TGI: > 100 µM
[3]
  GI50: 48.2 µM
  TGI: > 100 µM
[4]
  GI50: 8.79 µM
  TGI: 21.7 µM
[5]
  GI50: 58.3 µM
  TGI: > 100 µM
[6]
  GI50: 47.6 µM
  TGI: > 100 µM
[7]
  GI50: 63.1 µM
  TGI: > 100 µM
[8]
  GI50: 40.9 µM
  TGI: > 85 µM
[9]
  GI50: 29.2 µM
  TGI: > 90.6 µM
[10]
  GI50: 41.4 µM
  TGI: > 87.8 µM
[11]
  GI50: 28.2 µM
  TGI: > 91.8 µM
[12]
  GI50: 10.2 µM
  TGI: > 100 µM
[13]
  GI50: 31.4 µM
  TGI: > 83.3 µM
[14]
  GI50: > 87.5 µM
  TGI: > 100 µM
[15]
  GI50: 14.1 µM
  TGI: > 100 µM
[16]
  GI50: 23.5 µM
  TGI: > 100 µM
[17]
  GI50: 21.3 µM
  TGI: > 100 µM
[18]
  GI50: 19.6 µM
  TGI: 53.7 µM
[19]
  GI50: 19.6 µM
  TGI: > 87 µM
[20]
  GI50: 20.6 µM
  TGI: > 95.7 µM
[21]
  GI50: 46.1 µM
  TGI: > 100 µM
[22]
  GI50: 20.3 µM
  TGI: > 100 µM
[23]
  GI50: 39.5 µM
  TGI: > 100 µM
[24]
  GI50: 14.3 µM
  TGI: 32.9 µM
[25]
  GI50: 48.1 µM
  TGI: > 100 µM
[26]
  GI50: 33.9 µM
  TGI: > 100 µM
[27]
  GI50: 35.9 µM
  TGI: > 100 µM
[28]
  GI50: 48.6 µM
  TGI: > 100 µM
[29]
  GI50: 34.8 µM
  TGI: > 100 µM
[30]
  GI50: 32.8 µM
  TGI: > 100 µM
[31]
  GI50: 33.2 µM
  TGI: 97.6 µM
[32]
  GI50: 3.6 µM
  TGI: 27.6 µM
[33]
  GI50: 32.3 µM
  TGI: > 100 µM
[34]
  GI50: 3.59 µM
  TGI: 17.5 µM
[35]
  GI50: 15.4 µM
  TGI: 31.8 µM
[36]
  GI50: 47.6 µM
  TGI: > 100 µM
[37]
  GI50: 34.2 µM
  TGI: > 80.3 µM
[38]
  GI50: 51 µM
  TGI: > 100 µM
[39]
  GI50: 38.1 µM
  TGI: > 100 µM
[40]
  GI50: 36.1 µM
  TGI: > 100 µM
[41]
  GI50: 13.4 µM
  TGI: 26.2 µM
[42]
  GI50: 48.3 µM
  TGI: > 100 µM
[43]
  GI50: 9.27 µM
  TGI: 25.5 µM
[44]
  GI50: 29.9 µM
  TGI: > 93.3 µM
[45]
  GI50: 32.4 µM
  TGI: > 100 µM
[46]
  GI50: 41.9 µM
  TGI: > 100 µM
[47]
  GI50: 18.6 µM
  TGI: 42.9 µM
[48]
  GI50: 17.6 µM
  TGI: 47.1 µM
[49]
  GI50: 24.1 µM
  TGI: 46.9 µM
[50]
  GI50: 43.1 µM
  TGI: > 100 µM
[51]
  GI50: 22.5 µM
  TGI: 83.4 µM
[52]
  GI50: 38.2 µM
  TGI: > 100 µM
[53]
  GI50: 21.2 µM
  TGI: 48.7 µM
[54]
  GI50: 16.6 µM
  TGI: > 59.9 µM
[55]
  GI50: > 78.2 µM
  TGI: > 100 µM
[56]
  GI50: 10.7 µM
  TGI: 25.4 µM
[57]
  GI50: 21.5 µM
  TGI: > 96.1 µM
[58]
  GI50: 10.8 µM
  TGI: 23.8 µM
[59]
  GI50: 28.3 µM
  TGI: > 96.5 µM
[60]
  GI50: 97.1 µM
  TGI: > 100 µM
